# Data from the supplement of paper PMC10307832.
# Key:
# Assay in all cases: relative viability (nuclei count vs DMSO), 5 days (fraction); higher = more cells survive
# Masitinib + Crizotinib = compound: Cc1ccc(NC(=O)c2ccc(CN3CCN(C)CC3)cc2)cc1Nc1nc(-c2cccnc2)cs1 [Masitinib] + C[C@@H](Oc1cc(-c2cnn(C3CCNCC3)c2)cnc1N)c1c(Cl)ccc(F)c1Cl [Crizotinib] (partner 1 µM)
# Method in brief: (§1)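 Lung cancer cell lines, seeded in 1536-well plates, were treated the following day by pin tool with a single drug or with five library-drug doses (not always all listed) in √10 steps on top of a fixed anchor-drug dose. Cells were fixed and nuclei stained in one step after 5 days, and nuclei were counted. Relative viability is the nuclei count for treated wells divided by that for vehicle wells, reported as medians of duplicate plates.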
# Masitinib + Navitoclax = compound: Cc1ccc(NC(=O)c2ccc(CN3CCN(C)CC3)cc2)cc1Nc1nc(-c2cccnc2)cs1 [Masitinib] + CC1(C)CCC(c2ccc(Cl)cc2)=C(CN2CCN(c3ccc(C(=O)NS(=O)(=O)c4ccc(N[C@H](CCN5CCOCC5)CSc5ccccc5)c(S(=O)(=O)C(F)(F)F)c4)cc3)CC2)C1 [Navitoclax] (partner 0.5 µM)
# Method in brief: as §1
# [1] = compound: CC1=CC(=CC=C1)NC2=NC(=CS2)C3=CC=NC=C3 + Cc1cc(Nc2cc(N3CCN(C)CC3)nc(Sc3ccc(NC(=O)C4CC4)cc3)n2)n[nH]1 [Tozasertib] (partner 0.1 µM)
# Method in brief: as §1
# Masitinib + Pemetrexed = compound: Cc1ccc(NC(=O)c2ccc(CN3CCN(C)CC3)cc2)cc1Nc1nc(-c2cccnc2)cs1 [Masitinib] + Nc1nc2[nH]cc(CCc3ccc(C(=O)N[C@@H](CCC(=O)O)C(=O)O)cc3)c2c(=O)[nH]1 [Pemetrexed] (partner 0.2 µM)
# Method in brief: as §1
Cell Line,relative viability (Masitinib + Crizotinib; first compound 0.01 µM),relative viability (Masitinib + Crizotinib; first compound 0.03162 µM),relative viability (Masitinib + Crizotinib; first compound 0.1 µM),relative viability (Masitinib + Crizotinib; first compound 0.3162 µM),relative viability (Masitinib + Crizotinib; first compound 1 µM),relative viability (Masitinib + Navitoclax; first compound 0.01 µM),relative viability (Masitinib + Navitoclax; first compound 0.03162 µM),relative viability (Masitinib + Navitoclax; first compound 0.1 µM),relative viability (Masitinib + Navitoclax; first compound 0.3162 µM),relative viability (Masitinib + Navitoclax; first compound 1 µM),relative viability ([1]; first compound 0.08 µM),relative viability ([1]; first compound 0.253 µM),relative viability ([1]; first compound 0.8 µM),relative viability ([1]; first compound 2.53 µM),relative viability ([1]; first compound 8 µM),relative viability (Masitinib + Pemetrexed; first compound 0.01 µM),relative viability (Masitinib + Pemetrexed; first compound 0.03162 µM),relative viability (Masitinib + Pemetrexed; first compound 0.1 µM),relative viability (Masitinib + Pemetrexed; first compound 0.3162 µM),relative viability (Masitinib + Pemetrexed; first compound 1 µM)
EBC-1,0.191,0.205,0.195,0.162,0.212,0.363,0.397,0.41,0.385,0.494,–,–,–,–,–,–,–,–,–,–
NCI-H522,–,–,–,–,–,–,–,–,–,–,0.539,0.54,0.59,0.504,0.643,1.13,0.935,0.95,0.841,0.997
IA-LM,–,–,0.871,0.618,0.84,0.733,0.699,1.02,0.689,1.01,–,–,–,–,–,–,–,–,–,–
NCI-H650,0.741,0.66,0.932,0.643,0.805,–,–,–,–,–,0.654,0.646,0.78,0.645,0.727,0.857,0.832,1.04,1.01,0.99
NCI-H1793,–,–,–,–,–,0.456,0.446,0.401,0.41,0.404,0.298,0.335,0.27,0.242,0.21,0.992,0.737,1,0.835,0.742
NCI-H358,0.406,0.534,0.588,0.473,0.533,–,–,–,–,–,0.112,0.116,0.11,0.118,0.101,0.16,0.169,0.167,0.163,0.178
NCI-H661,0.737,1.2,0.964,0.93,0.844,–,–,–,–,–,0.33,0.367,0.353,0.341,0.333,0.9,0.913,0.946,0.939,0.895
NCI-H727,0.824,0.844,0.925,0.778,0.91,0.424,0.431,0.385,0.347,0.434,–,0.582,0.539,0.58,0.458,–,–,–,–,–
NCI-H1299,0.947,0.989,1.02,1.01,0.96,1.08,1.03,1.04,1.04,1.03,–,–,–,–,–,–,–,–,–,–
NCI-H1792,0.866,0.449,0.993,0.829,1.05,0.563,0.239,0.643,0.65,0.673,–,–,–,–,–,0.846,0.525,0.93,0.548,0.707
